# US10189782B2, “Derivatives of indole for the treatment of cancer, viral infections and lung diseases” (BIOKINESIS, priority 2012, dated 2019)
# Counter-ions that a name gives are not always drawn. Like-named read-outs stand apart in the source and are kept apart here.
# Key:
# K562 cells = assay: Cytotoxicity on human cancer cells (WST-1), K562; format: cell-based
# Procedure: Evaluation of Cytotoxicity Effects on Human Cancer Cells
# The effects of the compounds of the invention on the viability of human cancer cells were studied on various human cancer cell lines of differing tissue origins (A549, NCI-H460: lung cancer; MDA-MB-231: breast cancer; HCT-116, HT-29: colon cancer; MIA-PaCa-2: pancreatic cancer; K562: leukaemia). All cell lines were obtained from ATCC or ECACC. Cells were cultured in the culture media described below, under a 37° C., 5% CO2 humidified atmosphere, according to a standard operating procedure.
# On D0, the cells were plated in 90 μl in 96 wells plates at densities ranging from 500 to 5,000 cells per well.
# Following addition of the test substance the cells were protected from light. The solvents (DMSO and specific control solvent were added at the maximal concentration: 10 μl/well (3 wells/condition)).
# On D4, the Cell Proliferation Reagent WST-1 was added to each well (10 μl/well), according to a standard operating procedure. The cells were then incubated for 30 min to 4 h at 37° C.-5% CO2. After these incubations, the 96-well plates were shaken thoroughly for 1 min with Multiskan® EX apparatus (Thermo Labsystems, France). The absorbence was measured at 450 nm, the reference wavelength being 620 nm. The analysis of the results was performed with the Ascent software 2.6 (Thermo Labsystems, France), Microsoft Excel 2003 and GraphPad Prism 4.03 softwares to give the concentration of the compounds that induces the death of 50% of the cells (IC50).
# [1] = target: T1, Human recombinant MKlp2 motor domain1-519, His tagged (Homo sapiens, UniProt O95235); assay: Microtubule stimulated ATPase activity of the MKlp2 motor domain (Kinesin ELIPA Assay Kit); format: biochemical
# T1 construct: Human recombinant MKlp2 motor domain1-519, His tagged; His; purchased Cytoskeleton MP05
# T1 sequence (O95235 1-519): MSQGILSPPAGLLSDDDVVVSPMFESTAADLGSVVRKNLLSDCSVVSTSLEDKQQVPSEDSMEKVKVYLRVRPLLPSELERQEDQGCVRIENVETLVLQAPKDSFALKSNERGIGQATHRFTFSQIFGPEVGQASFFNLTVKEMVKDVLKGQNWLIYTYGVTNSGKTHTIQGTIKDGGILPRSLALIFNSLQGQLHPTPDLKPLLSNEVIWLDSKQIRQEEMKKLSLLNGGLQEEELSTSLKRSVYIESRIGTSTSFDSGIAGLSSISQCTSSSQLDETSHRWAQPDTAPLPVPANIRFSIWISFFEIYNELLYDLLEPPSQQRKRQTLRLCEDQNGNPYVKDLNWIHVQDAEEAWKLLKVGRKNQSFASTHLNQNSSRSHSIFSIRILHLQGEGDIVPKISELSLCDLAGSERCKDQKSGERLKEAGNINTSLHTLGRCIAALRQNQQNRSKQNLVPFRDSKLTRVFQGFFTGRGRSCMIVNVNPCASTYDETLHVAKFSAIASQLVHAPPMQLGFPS
# Procedure: Evaluation of Inhibitory Effects on the Microtubule Stimulated ATPase Activity of the MKlp2 Motor Domain.
# MKlp2 ATPase activity was measured by monitoring real time free phosphate generation using the Kinesin ELIPA Assay Kit. The assay is based upon an absorbance shift (330 nm-360 nm) that occurs when 2-amino-6-mercapto-7-methylpurine ribonucleoside (MESG) is catalytically converted to 2-amino-6-mercapto-7-methylpurine in the presence of inorganic phosphate (Pi). One molecule of Pi will yield one molecule of 2-amino-6-mercapto-7-methylpurine in an essentially irreversible reaction.
# All experiments were performed at 22° C.
# Condition 1, compound preparation.
# The compounds were dissolved in DMSO at 30× the maximum concentration to be tested. […] DMSO solutions were pipetted directly into each well.
# Condition 2, reaction's “motor mix”.
# The following were mixed sequentially in the specified order at RT to obtain the “motor mix”.
# 20 mL: 15 mM Pipes-NaOH pH 7.0, 10 mM MgCl2, 30 μM Tx (Buffer 1).
# 10 mL: 5× MSEG (ELIPA 1 reagent, Cat. # BK051).
# 10 mL: 2.5 mg/mL porcine brain microtubules (3×10 mg Cat. # MT002-XL resuspended in 12 mL of Buffer 1).
# 0.5 mL: 100×PNP (ELIPA 2 reagent, cat. # BK051).
# Condition 3, reaction initiation.
# The motor mix was pipetted into each well to obtain 80% of total volume. The reaction was initiated by adding a 20% of total volume of 5 mM ATP into each well.
# The reactions were measured in a SpectraMax M2 (Molecular Devices) set in kinetic mode and 360 nm absorbance wavelength. The start protocol was 5 second rapid circular mixing, 21 readings, 30 seconds apart.
# [2] = Table 4, K562 leukaemia cells, WST-1 on D4, read-out: K562 IC50
# [3] = Table 6 (prodrugs, formula II), read-out: MKIp2 IC50
# [4] = Table 6 (prodrugs, formula II), K562 cells, WST-1 on D4, read-out: K562 IC50
# [5] = Table 3, 22° C., read-out: MKIp2 IC50
"IC50 [1, 3]","IC50 [1, 5]",SMILES,IC50 (K562 cells; [4]),other results
–,0.73 µM,"N#C/C(=C\c1c[n+]([O-])ccc1-c1ccoc1)c1c[nH]c2ccc(Br)cc12 [Example 48, (Z)-3-(2-(5-bromo-1H-indol-3-yl)-2-cyanovinyl)-4-(furan-3-yl)pyridine-1-oxide]",–,IC50 (K562 cells; [2]): 6.71 µM
> 50 µM,–,"COc1ccc(C#N)cc1/C=C(\C#N)c1cn(C(=O)CN2CCN(C)CC2)c2ccc(Br)cc12 [Example 68, (Z)-3-(2-(5-bromo-1-(2-(4-methylpiperazin-1-yl)acetyl)-1H-indol-3-yl)-2-cyanovinyl)-4-methoxybenzonitrile]",0.03 µM,–
–,1.1 µM,"CCN(CC)c1ccncc1/C=C(\C#N)c1c[nH]c2ccc(Br)cc12 [Example 24, (Z)-2-(5-bromo-1H-indol-3-yl)-3-(4-(diethylamino)pyridin-3-yl)acrylonitrile]",–,IC50 (K562 cells; [2]): 3.1 µM
–,0.56 µM,"COc1cc[n+]([O-])cc1/C=C(\C#N)c1c[nH]c2ccc(Cl)cc12 [Example 49, (Z)-3-(2-(5-chloro-1H-indol-3-yl)-2-cyanovinyl)-4-methoxypyridine 1-oxide]",–,IC50 (K562 cells; [2]): 9.23 µM
–,0.09 µM,"N#C/C(=C\c1cnccc1Oc1ccc(F)cc1)c1c[nH]c2ccc(Cl)cc12 [Example 23, (Z)-2-(5-chloro-1H-indol-3-yl)-3-(4-(4-fluorophenoxy)pyridin-3-yl)acrylonitrile]",–,–
–,0.4 µM,"N#C/C(=C\c1cnccc1Sc1ccccn1)c1c[nH]c2ccc(Br)cc12 [Example 31, (Z)-2-(5-bromo-1H-indol-3-yl)-3-(4-(pyridin-2-ylthio)pyridin-3-yl)acrylonitrile]",–,–
–,0.06 µM,"N#C/C(=C\c1cnccc1-n1cncn1)c1c[nH]c2ccc(Br)cc12 [Example 32, (Z)-3-(4-(1H-1,2,4-triazol-1-yl)pyridin-3-yl)-2-(5-bromo-1H-indol-3-yl)acrylonitrile]",–,–
–,0.2 µM,"COc1ccncc1/C=C(\C#N)c1c[nH]c2cc(Cl)ccc12 [Example 47, (Z)-2-(6-chloro-1H-indol-3-yl)-3-(4-methoxypyridin-3-yl)acrylonitrile]",–,–

# The remaining lines, values behind:
SMILES,"IC50 [1, 3]","IC50 [1, 5]",IC50 (K562 cells; [4]),other results
"N#C/C(=C\c1cnccc1O)c1c[nH]c2ccc(Cl)cc12 [Example 50, (Z)-2-(5-chloro-1H-indol-3-yl)-3-(4-hydroxypyridin-3-yl)acrylonitrile]",–,–,–,IC50 (K562 cells; [2]): 14.7 µM
"COc1ccc(C#N)cc1/C=C(\C#N)c1cn(C(=O)C[C@H](C)N)c2ccc(Br)cc12 [Example 70, (S,Z)-3-(2-(1-(3-aminobutanoyl)-5-bromo-1H-indol-3-yl)-2-cyanovinyl)-4-methoxybenzonitrile hydrochloride]",> 50 µM,–,0.01 µM,–
"COc1ccncc1/C=C(\C#N)c1cn(C(=O)C(C)(C)C)c2ccc(Br)cc12 [Example 57, (Z)-2-(5-bromo-1-pivaloyl-1H-indol-3-yl)-3-(4-methoxypyridin-3-yl)acrylonitrile]",20 µM,–,0.2 µM,–
"N#C/C(=C\c1cc(C#N)ccc1OC(F)(F)F)c1c[nH]c2ccc(Cl)cc12 [Example 52, (Z)-3-(2-(5-chloro-1H-indol-3-yl)-2-cyanovinyl)-4-(trifluoromethoxy)benzonitrile]",–,–,–,IC50 (K562 cells; [2]): 0.85 µM
"N#C/C(=C\c1cnccc1-c1ccoc1)c1c[nH]c2ccc(Br)cc12 [Example 34, (Z)-2-(5-bromo-1H-indol-3-yl)-3-(4-(furan-3-yl)pyridin-3-yl)acrylonitrile]",–,0.07 µM,–,IC50 (K562 cells; [2]): 2.2 µM
"N#CC(=Cc1cccnc1)c1c[nH]c2ccccc12 [W02010/150211-Example 1, reference compound]",–,–,–,"IC50 (K562 cells; K562, read-out: K562 IC50 (μM)): 21.4 µM"
"COc1ccc(C#N)cc1/C=C(\C#N)c1cn(C(=O)[C@H](N)CCCCN)c2ccc(Br)cc12 [Example 76, (R,Z)-3-(2-(5-bromo-1-(2,6-diaminohexanoyl)-1H-indol-3-yl)-2-cyanovinyl)-4-methoxybenzonitrile dihydrochloride]",1.3 µM,–,0.04 µM,–
"COCCOCCOCC(=O)n1cc(/C(C#N)=C/c2cc(C#N)ccc2OC)c2cc(Br)ccc21 [Example 73, (Z)-3-(2-(5-bromo-1-(2-(2-(2-methoxyethoxy)ethoxy)acetyl)-1H-indol-3-yl)-2-cyanovinyl)-4-methoxybenzonitrile]",> 50 µM,–,0.03 µM,–
"COc1ccc(C#N)cc1/C=C(\C#N)c1cn(C(=O)[C@@H](N)CO)c2ccc(Br)cc12 [Example 74, (S,Z)-3-(2-(1-(2-amino-3-hydroxypropanoyl)-5-bromo-1H-indol-3-yl)-2-cyanovinyl)-4-methoxybenzonitrile hydrochloride]",2.1 µM,–,0.01 µM,–
"COc1ccc(C#N)cc1/C=C(\C#N)c1cn(C(=O)C(C)(C)C)c2ccc(Br)cc12 [Example 58, (Z)-3-(2-(5-bromo-1-pivaloyl-1H-indol-3-yl)-2-cyanovinyl)-4-methoxybenzonitrile]",7.5 µM,–,0.06 µM,–
"COc1ccc(C#N)cc1/C=C(\C#N)c1cn(C(C)=O)c2ccc(Br)cc12 [Example 56, (Z)-3-(2-(1-acetyl-5-bromo-1H-indol-3-yl)-2-cyanovinyl)-4-methoxybenzonitrile]",16.7 µM,–,0.25 µM,–
"COc1ccc(C#N)cc1/C=C(\C#N)c1cn(C(=O)CCOP(=O)(O)O)c2ccc(Br)cc12 [Example 79, (Z)-3-(5-bromo-3-(1-cyano-2-(5-cyano-2-methoxyphenyl)vinyl)-1H-indol-1-yl)-3-oxopropyl dihydrogen phosphate]",> 50 µM,–,0.4 µM,–
"N#C/C(=C\c1cc(C#N)ccc1OC(F)(F)F)c1c[nH]c2ccc(Br)cc12 [Example 53, (Z)-3-(2-(5-bromo-1H-indol-3-yl)-2-cyanovinyl)-4-(trifluoromethoxy)benzonitrile]",–,–,–,IC50 (K562 cells; [2]): 0.38 µM
"N#C/C(=C\c1cnccc1Oc1ccc(F)cc1)c1c[nH]c2ccc(Br)cc12 [Example 22, (Z)-2-(5-bromo-1H-indol-3-yl)-3-(4-(4-fluorophenoxy)pyridin-3-yl)acrylonitrile]",–,0.09 µM,–,–
"COc1ccncc1/C=C(\C#N)c1c[nH]c2cc(F)ccc12 [Example 46, (Z)-2-(6-fluoro-1H-indol-3-yl)-3-(4-methoxypyridin-3-yl)acrylonitrile]",–,0.12 µM,–,–
"COc1ccc2c(C(C#N)=Cc3cccnc3)c[nH]c2c1 [W02010/150211-Example 26, reference compound]",–,–,–,"IC50 ([1]; MKIp2 IC50 (μM), Table 3, 22° C.): 26.5 µM"
"CN(C)c1ccc(C#N)cc1/C=C(\C#N)c1c[nH]c2ccc(Cl)cc12 [Example 41, (Z)-3-(2-(5-chloro-1H-indol-3-yl)-2-cyanovinyl)-4-(dimethylamino)benzonitrile]",–,0.4 µM,–,–
"N#C/C(=C\c1cc(C#N)ccc1O)c1c[nH]c2ccc(Br)cc12 [Example 51, (Z)-3-(2-(5-bromo-1H-indol-3-yl)-2-cyanovinyl)-4-hydroxybenzonitrile]",–,–,–,IC50 (K562 cells; [2]): 0.5 µM
"N#C/C(=C\c1cnccc1-c1cccc(Br)c1)c1c[nH]c2ccc(Cl)cc12 [Example 18, (Z)-3-(4-(3-bromophenyl)pyridin-3-yl)-2-(5-chloro-1H-indol-3-yl)acrylonitrile]",–,0.3 µM,–,–
